Data set [1] relates to MCF7. Nature of the data set: Anticancer activity against human MCF7 cells assessed as reduction in cell viability incubated for 48 hrs by MTT assay. Particulars: MCF7, 48 h. The format is functional, cell-based. (Tetrazolium assays rely on reduction of a dye to a coloured formazan, in cell work by metabolically active cells.)
Data set [2] has as its system A549. Nature of the data set: Anticancer activity against human A549 cells assessed as reduction in cell viability incubated for 48 hrs by MTT assay. The format is functional, cell-based. Particulars: A549, 48 h.
For data set [3], the system named is B16-F10. Briefly: Anticancer activity against mouse B16-F10 cells incubated for 48 hrs by MTT assay. Conditions: B16-F10, 48 h. The format is functional, cell-based.
The subject of data set [4] is HepG2. Nature of the data set: Antiproliferative activity against human HepG2 cells by MTT assay. The format is functional, cell-based.
Data set [5] deals with L02. Briefly: Antiproliferative activity against human L02 cells by MTT assay. The format is functional, cell-based.
In data set [6] the test system is MCF7. Nature of the data set: Anticancer activity against human MCF7 cells at 10 uM by MTT assay relative to control. The class given is functional.
For data set [7], the system named is HeLa. Nature of the data set: Cytotoxicity against human HeLa cells incubated for 48 hrs by MTT assay. The format is functional, cell-based.
Data set [8] concerns HeLa. Nature of the data set: Cytotoxicity against human HeLa cells incubated for 24 hrs by MTT assay. The class given is functional, cell-based.
Data set [9] is described as follows: Inhibition of cell proliferation in human MCF-10A cells at 50 uM by MTT colorimetric cell viability assay relative to control. The format is toxicity, cell-based.
Data set [10] concerns MCF7. Nature of the data set: Inhibition of cell proliferation in human MCF7 cells. The class given is functional, cell-based.
Data set [11] relates to MCF7. Briefly: Anticancer activity against human MCF7 cells assessed as inhibition of cell viability. The format is functional, cell-based.
For data set [12], the system named is HepG2. Nature of the data set: Anticancer activity against human HepG2 cells. The format is functional, cell-based.
The subject of data set [13] is MCF7. Briefly: Anticancer activity against human MCF7 cells assessed as inhibition of cell growth by MTT assay. The format is functional, cell-based.
The test system of data set [14] is A549. Nature of the data set: Anticancer activity against human A549 cells assessed as inhibition of cell growth by MTT assay. The format is functional, cell-based.
Data set [15] concerns HeLa. Nature of the data set: Anticancer activity against human HeLa cells assessed as inhibition of cell growth by MTT assay. The format is functional, cell-based.
Data set [16] relates to MGC-803. Nature of the data set: Cytotoxicity against human MGC-803 cells assessed as inhibition of tumor cell proliferation incubated for 72 hrs by MTT assay. The class given is functional, cell-based. Conditions: MGC-803, 72 h.
Data set [17] concerns A549. Briefly: Cytotoxicity against human A549 cells assessed as inhibition of tumor cell proliferation incubated for 72 hrs by MTT assay. Conditions: A549, 72 h. The format is functional, cell-based.
Data set [18] has as its system SMMC-7721. Briefly: Cytotoxicity against human SMMC-7721 cells assessed as inhibition of tumor cell proliferation incubated for 72 hrs by MTT assay. The class given is functional, cell-based. Particulars: SMMC-7721, 72 h.
Data set [19] deals with HCT-116. Nature of the data set: Cytotoxicity against human HCT-116 cells incubated overnight by MTT assay. The format is functional, cell-based.
Data set [20] relates to HepG2. Nature of the data set: Cytotoxicity against human HepG2 cells incubated overnight by MTT assay. The class given is functional, cell-based.
The nature of data set [21]: Antiproliferative activity against human […] cells measured after 48 hrs by MTT assay. The format is functional, cell-based.
The test system of data set [22] is MCF7. Briefly: Antiproliferative activity against human MCF7 cells measured after 48 hrs by MTT assay. The format is functional, cell-based. Conditions: MCF7, 48 h.
The subject of data set [23] is A549. Nature of the data set: Antiproliferative activity against human A549 cells measured after 48 hrs by MTT assay. The format is functional, cell-based. Conditions: A549, 48 h.
The test system of data set [24] is HL-60. Briefly: Antiproliferative activity against human HL-60 cells measured after 48 hrs by MTT assay. The format is functional, cell-based. Conditions: HL-60, 48 h.
The test system of data set [25] is HT-29. Briefly: Antiproliferative activity against human HT-29 cells measured after 48 hrs by MTT assay. Conditions: HT-29, 48 h. The class given is functional, cell-based.
In data set [26] the test system is HepG2. Briefly: Antiproliferative activity against human HepG2 cells measured after 48 hrs by MTT assay. The format is functional, cell-based. Particulars: HepG2, 48 h.
Data set [27] relates to SW480. Briefly: Antiproliferative activity against human SW480 cells measured after 48 hrs by MTT assay. The format is functional, cell-based. Conditions: SW480, 48 h.
The test system of data set [28] is HeLa. Nature of the data set: Antiproliferative activity against human HeLa cells measured after 48 hrs by MTT assay. The class given is functional, cell-based.

pEC50, pIC50: −log10 of the molar value. A value given as a limit tells only on which side of the number the result lay.

Broadly, the pIC50 is −log10 of the IC50, conventionally taken in molar units. The inhibition is the share of the control response that was lost under treatment. A low value points to a weak effect. For orientation: pEC50 means −log10 of the EC50, conventionally taken in molar units. Read a high pEC50 as a low EC50.

`COC1=CC2(C=C(C(=O)Oc3c(F)cc(F)cc3F)c3cc(OC)cc(OC)c32)C(OC)=CC1=O` (centres undefined): the negative-log IC50 (pIC50) in data set [1] is 4.91; in data set [2] it was 4.98; in data set [3], 5.02.
In the case of `O=C1C(=O)C2C(N=C3N=NNN3C23C(=O)Nc2c(C(F)(F)F)cccc23)c2ccccc21` (centres undefined), the pIC50 in data set [4] is 5.10; in [5] it was 4.30.
In turn, `COC(=O)c1[nH]nc2c1C1(C(=O)N(C(C)=O)c3ccccc31)C(C#N)=C(N)O2` (centres undefined) had an inhibition at 10 µM in [6] of 23.2%.
On to `Cc1cn(CN2C(=O)C3(c4ccccc42)C(C(=O)c2ccc(F)cc2)C3C(=O)c2ccc(Cl)cc2)nn1` (centres undefined), for which the negative-log IC50 (pIC50) in data set [7] is 5.20; in data set [8], 4.95.
In data set [9], `COc1cc(OC)c(C2NCCC23C(=O)Nc2ccccc23)cc1OC` (centres undefined) displayed an inhibition at 50 µM of 0.8%. This compound gave a negative logarithm of the EC50 (pEC50) in data set [10] of 5.40.
Consider `Cc1ccc2c(c1)C1(C(=O)N2)C(C#N)=C(N)NC2=C1CCCC2` (centres undefined), for which the values for the pIC50 in data set [11] and in data set [12] were 4.55 and 4.44, respectively.
For `O=C1C2=C(c3ccccc31)N(c1ccc(N3CCOCC3)c(F)c1)C1=C(C(=O)c3ccccc31)C21C(=O)Nc2ccccc21`, the pIC50 in [13] was 5.19; in data set [14], 4.75; in data set [15], 5.04.
Consider `C[C@]12CC[C@H](O)CC1=CCC1C2CC[C@@]2(C)C1CC[C@@H]2C1=CC2(C(=O)N(Cc3ccc(Cl)c(Cl)c3)c3ccccc32)C(C#N)=C(N)N1` (some centres undefined), for which the pIC50 in data set [16], in data set [17] and in data set [18] was under 3.89 throughout.
Turning to `C[C@]12CC[C@H](O)CC1=CCC1C2CC[C@@]2(C)C1CC[C@@H]2C1=CC2(C(=O)Nc3ccc(Cl)cc32)C(C#N)=C(N)N1` (some centres undefined), the pIC50 in data set [17] was 4.94.
Turning to `COC1=CC2(C=C(C(=O)Oc3cccc(F)c3F)c3cc(OC)cc(OC)c32)C(OC)=CC1=O` (centres undefined), the pIC50 in data set [1] is 4.88; in data set [2] it was 5.02; in data set [3], 4.96.
Turning to `O=C(/C=C/c1cccc(Br)c1)[C@H]1[C@H](c2cccc(Br)c2)C2CSCN2[C@]12C(=O)Nc1cc(Br)c(Br)cc12` (some centres undefined), the pIC50 in data set [19] was 5.80; in data set [20], 6.05.
In the case of `CC(C)CCC[C@@H](C)[C@@H]1CCC2C3C[C@@]4(N=C5C=CC=CN5/C4=N\c4ccccc4)C4CCCC[C@]4(C)C3CC[C@@]21C` (some centres undefined), the pIC50 in data set [21] was 5.27; in data set [22] it was 5.32; in data set [23], 5.58; in data set [24] it was 5.29; in data set [25] it was 5.51; in [26], 5.37. The pIC50 is 5.28 in [27] and 5.42 in data set [28].
Turning to `O=C1Nc2ccccc2C12CCNC2c1ccccc1` (centres undefined), the inhibition at 50 µM in data set [9] came out at 0.08%. In addition, in data set [10], the pEC50 was 5.45.
`O=C1Nc2ccc(Br)cc2C12c1c(c3ccccc3oc1=O)N(c1ccc(N3CCOCC3)c(F)c1)c1c2c(=O)oc2ccccc12`: the values for the pIC50 in data set [13], in [14] and in data set [15] were 5.02, 4.65 and 4.74, respectively.
`CC(=O)N1C(=O)C2(C(C#N)=C(N)Oc3n[nH]c(C)c32)c2ccccc21` (centres undefined) returned an inhibition at 10 µM in data set [6] of 26.5%.
On to `O=C1Nc2ccc(Br)cc2C12c1c([nH]c(=O)[nH]c1=O)N(c1ccc(N3CCOCC3)c(F)c1)c1[nH]c(=O)[nH]c(=O)c12`, for which the figures for the pIC50 in [13], in data set [14] and in data set [15] were 4.64, 4.59 and 5.17, respectively.
Take `COC1=CC2(C=C(C(=O)NNc3ccc(F)c(F)c3)c3cc(OC)cc(OC)c32)C(OC)=CC1=O` (centres undefined): the pIC50 in data set [1] is 4.81; in data set [2] it was 4.69; in data set [3] it was 4.68.

(Values after ChEMBL document CHEMBL5233269, “Anticancer potential of spirocompounds in medicinal chemistry: A pentennial expedition” (Eur J Med Chem, 2021).)
